{"source": "paper PMC12140300", "about": "“Development of Carbon‐11 Labeled Pyrimidine Derivatives as Novel Positron Emission Tomography (PET) Agents Enabling Brain Sigma‐1 Receptor Imaging” (Advanced Science, 2025)", "system": "σ1R", "assay": "NHP PET/MR imaging with kinetic modelling, baseline and self-blocking", "format": "in vivo", "conditions": "for VT, One tissue compartment model [1TCM] / VT, Two tissue compartment model [2TCM] / VT, Logan graphical method [T* = 40 min]: male NHP brain", "from_the_text": "Next, we conducted PET/MR imaging studies using [^11C]CNY‐01 in non‐human primates (NHP) to evaluate its safety and translational potential in large animals further. A 90‐minute dynamic PET scan with [^11C]CNY‐01 focusing on the head of a male rhesus monkey. We performed a full kinetic analysis with one‐ and two‐tissue compartment models (1TCM and 2TCM), as well as logan graphical analysis (LGA), using metabolite‐corrected arterial input function (AIF), similar to previous studies,^[ [44], [45] ^] to determine which model best suit kinetics of [^11C]CNY‐01. In most brain regions, 2TCM provided a better fit than 1TCM, as indicated by the Akaike information criterion (AIC) and model selection criterion (MSC) (Table 1). […] To test whether non‐parametric graphical approaches can be used for [^11C]CNY‐01, we performed LGA with an assumption of steady‐state time (T*) of 40 mins (Table 1). […] For voxel‐wise estimation of VT across the whole brain, we then used LGA (Figure 4A).\nWe also performed a self‐blocking scan for [^11C]CNY‐01, administering 0.5 mg kg^−1 of unlabeled CNY‐01 10 min before the radiotracer. The metabolism of the radiotracer in the blocking scan was similar to that of the baseline (Figure S6, Supporting Information). The radioactivity concentration was lower in arterial blood samples in the blocking scan compared to the baseline, while brain uptake was higher in the blocking scan (Figure S6, Supporting Information). […] The variation of the radiotracer plasma protein binding (fp) between baseline and blocking scan may explain our observation in a way similar to that of the previous study.^[ [46] ^] Nonetheless, due to this study's lack of fp data, the exact explanation for our observation remains to be determined further.\nThe PET/MR imaging protocol in non‐human primates (NHP) followed our previous work.^[ [55], [56] ^] A male rhesus macaque (8.55 kg) was anesthetized with an intramuscular injection of xylazine (0.5–2.0 mg kg^−1) and ketamine (10 mg kg^−1), followed by endotracheal intubation. V‐ and A‐lines were inserted, and anesthesia was maintained using isoflurane. [^11C] CNY‐01 was administered after antecubital catheterization, with an arterial line prepared for radiometabolite analysis. In the self‐blocking scan, the same animal (6.80 kg) was scanned with a 10‐min pre‐treatment of 0.5 mg kg^−1 unlabeled CNY‐01. PET/MR imaging data were acquired using a Siemens TIM‐Trio scanner (3T) equipped with a Siemens BrainPET insert module and an in‐house‐built 8‐channel head coil. The dynamic scan began, followed by administration of [^11C] CNY‐01 (5.1 mCi). The list mode data were reconstructed using the 3D ordinary Poisson expectation‐maximization algorithm (16 subsets and 6 iterations) with detector efficiency, decay, dead time, random coincidences, scatter, and attenuation corrections with gradually increasing time frams. All images were reconstructed into 153 slices with 256 × 256 pixels and 1.25‐mm isotropic voxel size. High‐resolution structural MRI scans were acquired by using a multi‐echo magnetization‐prepared rapid gradient echo (ME‐MPRAGE) sequence with parameters as follows: TR = 2400 ms; TE1/TE2/TE3/TE4 = 1.57/3.29/5.01/6.73 ms; inversion time = 1200 ms; flip angle = 9°; spatial resolution = 1 mm isotropic.\nFor macaque brain PET/MR imaging analysis, we applied the INIA19 Template^[ [57] ^] and NeuroMaps Atlas in accordance with our prior work.^[ [58] ^] In brief, reconstructed PET images were registered to the INIA19 Primate Brain Atlas^[ [57] ^] with the following processing steps^[ [59] ^]: The high‐resolution T1‐weighted MR image, co‐registered with the PET image, was first affine‐registered to the INIA19 atlas. By using the same transformation, dynamic PET data was registered to the atlas. A spatial smoothing with a 6‐mm FWHM Gaussian kernel was applied to PET images. Twenty ROIs determined in the INIA19 atlas were used to derive regional TACs. […]", "key": {"[1]": {"conditions": "NAc, 10-min pretreatment of unlabeled CNY-01 (0.5 mg kg^−1)"}, "[2]": {"conditions": "Occg, 10-min pretreatment of unlabeled CNY-01 (0.5 mg kg^−1)"}, "[3]": {"conditions": "Ofc, 10-min pretreatment of unlabeled CNY-01 (0.5 mg kg^−1)"}, "[4]": {"conditions": "PCC, 10-min pretreatment of unlabeled CNY-01 (0.5 mg kg^−1)"}, "[5]": {"conditions": "Putamen, 10-min pretreatment of unlabeled CNY-01 (0.5 mg kg^−1)"}, "[6]": {"conditions": "Sensory, 10-min pretreatment of unlabeled CNY-01 (0.5 mg kg^−1)"}, "[7]": {"conditions": "Thalamus, 10-min pretreatment of unlabeled CNY-01 (0.5 mg kg^−1)"}, "[8]": {"conditions": "VTA, 10-min pretreatment of unlabeled CNY-01 (0.5 mg kg^−1)"}, "[9]": {"conditions": "WB, 10-min pretreatment of unlabeled CNY-01 (0.5 mg kg^−1)"}, "[10]": {"conditions": "WM, 10-min pretreatment of unlabeled CNY-01 (0.5 mg kg^−1)"}}, "data": [{"smiles": "Cc1nc(-c2ccc(O[11CH3])cc2)nc(OCCCN2CCCCC2)c1Cl", "note": "[[^11C]CNY-01]", "values": [{"measurement": "VT, One tissue compartment model [1TCM]", "setting": "Motor, baseline", "value": 6.97, "unit": "mL cm^−3"}, {"measurement": "VT, Two tissue compartment model [2TCM]", "setting": "Motor, baseline", "value": 8.88, "unit": "mL cm^−3"}, {"measurement": "VT, Logan graphical method [T* = 40 min]", "setting": "[1]", "value": 33.22, "unit": "ml/cm^3"}, {"measurement": "VT, Two tissue compartment model [2TCM]", "setting": "[1]", "value": 26.92, "unit": "ml/cm^3"}, {"measurement": "VT, Logan graphical method [T* = 40 min]", "setting": "NAc, baseline", "value": 13.11, "unit": "mL cm^−3"}, {"measurement": "VT, One tissue compartment model [1TCM]", "setting": "NAc, baseline", "value": 9.85, "unit": "mL cm^−3"}, {"measurement": "VT, Two tissue compartment model [2TCM]", "setting": "NAc, baseline", "value": 11.85, "unit": "mL cm^−3"}, {"measurement": "nonspecific binding in blockage experiments", "setting": "NHP", "value": "high nonspecific binding"}, {"measurement": "binding to target within the imaging timeframe", "setting": "NHP, speculated from pharmacokinetic characteristics", "value": "predominantly irreversible"}, {"measurement": "VT, Logan graphical method [T* = 40 min]", "setting": "[2]", "value": 12.96, "unit": "ml/cm^3"}, {"measurement": "VT, Two tissue compartment model [2TCM]", "setting": "[2]", "value": 11.84, "unit": "ml/cm^3"}, {"measurement": "VT, Logan graphical method [T* = 40 min]", "setting": "Occg, baseline", "value": 7.07, "unit": "mL cm^−3"}, {"measurement": "VT, One tissue compartment model [1TCM]", "setting": "Occg, baseline", "value": 5.24, "unit": "mL cm^−3"}, {"measurement": "VT, Two tissue compartment model [2TCM]", "setting": "Occg, baseline", "value": 6.28, "unit": "mL cm^−3"}, {"measurement": "VT, Logan graphical method [T* = 40 min]", "setting": "[3]", "value": 20.65, "unit": "ml/cm^3"}, {"measurement": "VT, Two tissue compartment model [2TCM]", "setting": "[3]", "value": 16.68, "unit": "ml/cm^3"}, {"measurement": "VT, Logan graphical method [T* = 40 min]", "setting": "Ofc, baseline", "value": 9.72, "unit": "mL cm^−3"}, {"measurement": "VT, One tissue compartment model [1TCM]", "setting": "Ofc, baseline", "value": 7.31, "unit": "mL cm^−3"}, {"measurement": "VT, Two tissue compartment model [2TCM]", "setting": "Ofc, baseline", "value": 9.24, "unit": "mL cm^−3"}, {"measurement": "VT, Logan graphical method [T* = 40 min]", "setting": "[4]", "value": 27.31, "unit": "ml/cm^3"}, {"measurement": "VT, Two tissue compartment model [2TCM]", "setting": "[4]", "value": 23.16, "unit": "ml/cm^3"}, {"measurement": "VT, Logan graphical method [T* = 40 min]", "setting": "PCC, baseline", "value": 12.38, "unit": "mL cm^−3"}, {"measurement": "VT, One tissue compartment model [1TCM]", "setting": "PCC, baseline", "value": 9.29, "unit": "mL cm^−3"}, {"measurement": "VT, Two tissue compartment model [2TCM]", "setting": "PCC, baseline", "value": 14.68, "unit": "mL cm^−3"}, {"measurement": "VT, Logan graphical method [T* = 40 min]", "setting": "[5]", "value": 33.81, "unit": "ml/cm^3"}, {"measurement": "VT, Two tissue compartment model [2TCM]", "setting": "[5]", "value": 27.99, "unit": "ml/cm^3"}, {"measurement": "VT, Logan graphical method [T* = 40 min]", "setting": "Putamen, baseline", "value": 15.02, "unit": "mL cm^−3"}, {"measurement": "VT, One tissue compartment model [1TCM]", "setting": "Putamen, baseline", "value": 11.56, "unit": "mL cm^−3"}, {"measurement": "VT, Two tissue compartment model [2TCM]", "setting": "Putamen, baseline", "value": 15.75, "unit": "mL cm^−3"}, {"measurement": "VT, Logan graphical method [T* = 40 min]", "setting": "[6]", "value": 19.24, "unit": "ml/cm^3"}, {"measurement": "VT, Two tissue compartment model [2TCM]", "setting": "[6]", "value": 16.21, "unit": "ml/cm^3"}, {"measurement": "VT, Logan graphical method [T* = 40 min]", "setting": "Sensory, baseline", "value": 8.75, "unit": "mL cm^−3"}, {"measurement": "VT, One tissue compartment model [1TCM]", "setting": "Sensory, baseline", "value": 6.73, "unit": "mL cm^−3"}, {"measurement": "VT, Two tissue compartment model [2TCM]", "setting": "Sensory, baseline", "value": 9.33, "unit": "mL cm^−3"}, {"measurement": "VT, Logan graphical method [T* = 40 min]", "setting": "[7]", "value": 30.88, "unit": "ml/cm^3"}, {"measurement": "VT, Two tissue compartment model [2TCM]", "setting": "[7]", "value": 25.02, "unit": "ml/cm^3"}, {"measurement": "VT, Logan graphical method [T* = 40 min]", "setting": "Thalamus, baseline", "value": 15.50, "unit": "mL cm^−3"}, {"measurement": "VT, One tissue compartment model [1TCM]", "setting": "Thalamus, baseline", "value": 10.94, "unit": "mL cm^−3"}, {"measurement": "VT, Two tissue compartment model [2TCM]", "setting": "Thalamus, baseline", "value": 19.46, "unit": "mL cm^−3"}, {"measurement": "VT, Logan graphical method [T* = 40 min]", "setting": "[8]", "value": 26.74, "unit": "ml/cm^3"}, {"measurement": "VT, Two tissue compartment model [2TCM]", "setting": "[8]", "value": 19.47, "unit": "ml/cm^3"}, {"measurement": "VT, Logan graphical method [T* = 40 min]", "setting": "VTA, baseline", "value": 12.11, "unit": "mL cm^−3"}, {"measurement": "VT, One tissue compartment model [1TCM]", "setting": "VTA, baseline", "value": 8.25, "unit": "mL cm^−3"}, {"measurement": "VT, Two tissue compartment model [2TCM]", "setting": "VTA, baseline", "value": 11.16, "unit": "mL cm^−3"}, {"measurement": "VT, Two tissue compartment model [2TCM]", "setting": "WB (whole brain), baseline", "value": 10.35, "unit": "mL cm^−3"}, {"measurement": "VT, Logan graphical method [T* = 40 min]", "setting": "[9]", "value": 20.75, "unit": "ml/cm^3"}, {"measurement": "VT, Two tissue compartment model [2TCM]", "setting": "[9]", "value": 16.75, "unit": "ml/cm^3"}, {"measurement": "VT, Logan graphical method [T* = 40 min]", "setting": "WB, baseline", "value": 9.82, "unit": "mL cm^−3"}, {"measurement": "VT, One tissue compartment model [1TCM]", "setting": "WB, baseline", "value": 7.44, "unit": "mL cm^−3"}, {"measurement": "VT, Two tissue compartment model [2TCM]", "setting": "WM (white matter), baseline", "value": 15.00, "unit": "mL cm^−3"}, {"measurement": "VT, Logan graphical method [T* = 40 min]", "setting": "[10]", "value": 25.98, "unit": "ml/cm^3"}, {"measurement": "VT, Two tissue compartment model [2TCM]", "setting": "[10]", "value": 21.29, "unit": "ml/cm^3"}, {"measurement": "VT, Logan graphical method [T* = 40 min]", "setting": "WM, baseline", "value": 11.98, "unit": "mL cm^−3"}, {"measurement": "VT, One tissue compartment model [1TCM]", "setting": "WM, baseline", "value": 9.00, "unit": "mL cm^−3"}]}]}
